Results from patent US5164296A, “Assay methods involving ouabain” (priority 1990, dated 1992).
pKd: −log10 of the molar value.

Columns and labels:
[1] = molecular target: T1, (Na^+ +K^+)ATPase (Canis lupus familiaris, UniProt P50997); test: Competition for ^3 H-ouabain binding to purified (Na^+ +K^+)ATPase; design: species or system dog; settings: competition for ^3 H-ouabain binding
T1 construct: (Na^+ +K^+)ATPase was purified from the outer medulla of dog kidney; from tissue; host or cells: dog kidney outer medulla, purified membrane enzyme
Method: (§1) More specifically, (Na^+ +K^+)ATPase was purified from the outer medulla of dog kidney using the angle rotor procedure (Jorgensen, P.L., Biochim. Biophys. Acta, 356:36-52 (1974)) and stored frozen at -60° C. at 1.0 mg/ml in 25 mM imidazole-HCl (pH 7.5) and 1.0 mM EDTA, in small aliquots. (Na^+ +K^+)ATPase activity was determined at 37° C. from rate measurements in 1.0 ml of coupled optical assay mixture comprising 20 mM KCl, 100 mM NaCl, 4.5 mM MgSO4, 5.0 mM EGTA, 3.0 mM ATP-Na2, 1.2 mM phosphoenol-pyruvate-tricyclohexylammonium, 0.3 mM NADH, 100 mM TES-Tris (ph 7.4), 5.0 units of lactate dehydrogenase, and 5.0 units of pyruvate kinase (Hamlyn, J.M. et al, Nature, 300:650-652 (1982)). (Na^+ +K^+)ATPase activity was 99% ouabain-inhibitable with activities of 10-18 μmol/min/mg of membrane protein. Maximally effective concentrations of digitalis-like activity had no effect on the enzymatic components of the coupled optical assay as determined by inspection of rates in response to addition of 20-50 μM ADP. The maximal capacity of the coupled optical assay was at least 500-2000 fold greater than the typical maximal hydrolytic rate of the (Na^+ +K^+)ATPase and was not rate limiting under any assay condition described herein.
Competition for ^3 H-ouabain (Amersham Corp. or DuPont-New England Nuclear) binding was carried out in 670 μl of binding buffer comprising, in final concentrations, 10 mM TES-Tris (pH 7.4), 0.5 mM EDTA, 5.0 mM MgCl2 and 5.0 mM Na2 HPO4 (hereinafter "binding buffer") and 50 nM ouabain containing ^3 H-ouabain tracer, and including the unknown sample. Binding was initiated by addition of 0.1-2 μg of purified (Na^+ +K^+)ATPase and the reaction performed for 2 hr at 37° C. […] Trapped ^3 H-ouabain was determined by scintillation counting, following 12 hr of soaking the filters in 4.0 ml of Beckman Ready Protein ™ scintillation cocktail (Beckman, Palo Alto, Calif.). […] All binding data were corrected for quench, and specific binding was expressed as pmol/mg of enzyme protein. […]

[2] = molecular target: T1, (Na^+ +K^+)ATPase; test: Inhibition of (Na^+ +K^+)ATPase activity (coupled optical assay); assay type: biochemical, dog; settings: inhibition of (Na^+ +K^+)ATPase activity
Method: as §1
The inhibition of (Na^+ +K^+)ATPase was carried out as described above.

CC1OC(OC2CC(O)C3(CO)C4C(O)CC5(C)C(C6=CC(=O)OC6)CCC5(O)C4CCC3(O)C2)C(O)C(O)C1O (stereo not shown) [human ouabain]
Hill coefficient [1]: -0.97
pKd ([1]; read-out: calculated apparent Kd value, 50 nM ouabain, 2 hr at 37° C.): 8.11
Hill coefficient [2]: -1.28
pKd ([2]; read-out: calculated apparent Kd value, 37° C.): 7.86
